Where “and” joins values, the source holds several entries; their conditions need not be identical. Equal entries are not always repeated. Structures can show the parent of a compound that is named as a salt.

One series has as its target T1, 5-HT7R (Homo sapiens, UniProt P34969).
T1 construct: expressed in transfected cells; host or cells: HEK293
Put plainly: cAMP functional test: inhibition of cAMP production induced by 5-CT (10 nM). It counts as cell-based. The following applies: for effect on 5-CT-induced cAMP accumulation: transfected HEK cells expressing 5-HT7R, 5-CT (10 nM); for Kb: cAMP production induced by 5-CT (10 nM), HEK-293 cells expressing 5-HT7R, read-out: KB (5-HT7R antagonistic properties). (In general: Cyclic AMP is a second messenger, typically raised through Gs and lowered through Gi signalling.)

The target of the next series is T2, human 5-HT7b receptors (Homo sapiens, UniProt P34969).
T2 construct: expressed in transfected cells; host or cells: HEK293
Put plainly: 5-HT7 competition radioligand binding assay ([3H]5-CT). The conditions noted are these: HEK293 cells overexpressing human 5-HT7b receptors, at least two independent experiments in triplicate; for Ki: read-out: Ki ± S.D. 5-HT7 binding affinity. The protocol:
Novel scaffold endowed with 5-HT7R activity was identified by screening of the in-house compound library in a single compound concentration of 1 µM in a competition radioligand binding assay using [^3H]5-CT and HEK293 cells overexpressing the human 5-HT7b receptors.

The next series addresses T3, dopaminergic D2 (Homo sapiens, UniProt P14416).
T3 construct: expressed in transfected cells; host or cells: HEK293
Description: D2 competition binding assay ([3H]-Raclopride). The conditions noted are these: for Ki: [3H]-Raclopride, HEK293 cells with overexpressed receptor, read-out: Ki ± S.D. D2.

Another series concerns the target T4, 5-HT2A (Homo sapiens, UniProt P28223).
T4 construct: expressed in transfected cells; host or cells: CHO
Put plainly: 5-HT2A competition binding assay ([3H]-Ketanserin). The following applies: CHO cells with overexpressed receptor, read-out: Ki ± S.D. 5-HT2A.

The target in another series is T5, 5-HT6 (Homo sapiens, UniProt P50406).
T5 construct: expressed in transfected cells; host or cells: HEK293
Description: 5-HT6 competition binding assay ([3H]-LSD). The following applies: for Ki: [3H]-LSD, HEK293 cells with overexpressed receptor, read-out: Ki ± S.D. 5-HT6.

The target of a further series is T6, 5-HT1A (Homo sapiens, UniProt P08908).
T6 construct: expressed in transfected cells; host or cells: HEK293
T6 sequence (P08908 1-422): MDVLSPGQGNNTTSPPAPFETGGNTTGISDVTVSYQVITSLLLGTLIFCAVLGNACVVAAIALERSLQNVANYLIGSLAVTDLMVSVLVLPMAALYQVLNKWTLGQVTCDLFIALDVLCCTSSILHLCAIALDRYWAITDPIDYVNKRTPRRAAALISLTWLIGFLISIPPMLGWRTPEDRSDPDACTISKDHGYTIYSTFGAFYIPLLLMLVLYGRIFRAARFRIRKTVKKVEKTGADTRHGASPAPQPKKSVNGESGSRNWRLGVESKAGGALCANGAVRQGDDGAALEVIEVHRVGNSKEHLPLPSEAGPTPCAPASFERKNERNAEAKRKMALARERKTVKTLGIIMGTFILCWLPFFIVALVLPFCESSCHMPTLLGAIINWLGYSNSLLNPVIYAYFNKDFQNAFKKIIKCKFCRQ
Put plainly: 5-HT1A competition binding assay ([3H]-8-OH-DPAT). The following applies: HEK293 cells with overexpressed receptor, read-out: Ki ± S.D. 5-HT1A.

T5 sequence (P50406 whole entry, species assumed): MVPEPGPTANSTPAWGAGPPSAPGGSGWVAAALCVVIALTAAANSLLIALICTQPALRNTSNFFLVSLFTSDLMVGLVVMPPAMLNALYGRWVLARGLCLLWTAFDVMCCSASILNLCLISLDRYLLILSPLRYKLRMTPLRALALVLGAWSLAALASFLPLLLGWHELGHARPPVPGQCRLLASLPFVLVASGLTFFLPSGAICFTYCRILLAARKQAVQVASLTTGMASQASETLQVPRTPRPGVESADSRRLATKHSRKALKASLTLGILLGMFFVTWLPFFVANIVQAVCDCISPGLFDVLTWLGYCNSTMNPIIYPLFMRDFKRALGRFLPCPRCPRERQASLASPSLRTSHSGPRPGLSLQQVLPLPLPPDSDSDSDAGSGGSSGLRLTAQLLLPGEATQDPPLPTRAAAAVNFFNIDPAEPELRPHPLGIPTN
T4 sequence (P28223 whole entry, species assumed): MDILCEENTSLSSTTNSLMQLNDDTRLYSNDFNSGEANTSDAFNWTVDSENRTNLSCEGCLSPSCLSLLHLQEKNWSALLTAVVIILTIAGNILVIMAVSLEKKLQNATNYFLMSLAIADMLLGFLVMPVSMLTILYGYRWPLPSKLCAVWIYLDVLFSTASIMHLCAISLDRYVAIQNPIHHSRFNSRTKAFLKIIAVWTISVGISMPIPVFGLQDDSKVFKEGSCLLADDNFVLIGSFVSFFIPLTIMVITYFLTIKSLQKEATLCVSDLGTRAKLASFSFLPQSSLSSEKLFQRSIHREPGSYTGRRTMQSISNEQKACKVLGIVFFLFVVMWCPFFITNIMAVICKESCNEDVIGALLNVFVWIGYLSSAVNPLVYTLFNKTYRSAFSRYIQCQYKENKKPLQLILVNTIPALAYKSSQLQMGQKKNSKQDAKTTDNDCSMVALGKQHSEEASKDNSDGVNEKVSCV
T3 sequence (P14416 whole entry): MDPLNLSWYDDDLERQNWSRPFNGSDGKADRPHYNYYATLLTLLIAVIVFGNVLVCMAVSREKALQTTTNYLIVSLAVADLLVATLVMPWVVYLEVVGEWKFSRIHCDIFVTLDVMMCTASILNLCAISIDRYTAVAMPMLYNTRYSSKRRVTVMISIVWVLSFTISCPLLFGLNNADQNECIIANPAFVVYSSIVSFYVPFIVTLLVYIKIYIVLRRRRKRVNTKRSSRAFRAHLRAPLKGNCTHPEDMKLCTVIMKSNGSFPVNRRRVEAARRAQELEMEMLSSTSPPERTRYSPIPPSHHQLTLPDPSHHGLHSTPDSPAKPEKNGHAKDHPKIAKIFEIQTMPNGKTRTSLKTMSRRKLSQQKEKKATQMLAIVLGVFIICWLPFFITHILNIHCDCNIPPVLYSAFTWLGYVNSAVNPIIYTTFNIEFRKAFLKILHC
T1 sequence (P34969 1-432): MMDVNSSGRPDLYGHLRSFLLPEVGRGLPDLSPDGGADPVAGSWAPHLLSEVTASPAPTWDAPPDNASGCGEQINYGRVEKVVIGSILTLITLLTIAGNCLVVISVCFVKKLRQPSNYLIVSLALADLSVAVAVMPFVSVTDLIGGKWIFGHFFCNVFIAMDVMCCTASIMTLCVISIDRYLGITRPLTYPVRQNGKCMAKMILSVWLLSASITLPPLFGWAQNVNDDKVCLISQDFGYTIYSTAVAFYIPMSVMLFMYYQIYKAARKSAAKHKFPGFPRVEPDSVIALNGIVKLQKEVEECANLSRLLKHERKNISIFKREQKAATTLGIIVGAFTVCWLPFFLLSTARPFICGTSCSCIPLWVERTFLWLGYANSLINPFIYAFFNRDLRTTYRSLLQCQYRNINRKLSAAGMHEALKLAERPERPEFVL
T2 sequence (P34969 1-432): as above

In the case of `CC1CCN(CC[C@H]2CCCN2S(=O)(=O)c2cccc(O)c2)CC1` [SB-269970, (2R)-1-((3-hydroxyphenyl)sulfonyl)-2-(2-(4-methyl-1-piperidinyl)ethyl)pyrrolidine, reference compound], the “effect on 5-CT-induced cAMP accumulation” value at 5-HT7R was “dose-dependently decrease”.
The melting point is the temperature of the solid-liquid transition. As for `CCCCc1nc(N2CCN(C)CC2)nc(-c2ccoc2)c1CCC` (as salt: hydrobromid) [Compound 22, 4-n-Butyl-6-(3-furyl)-2-(4-methylpiperazino)-5-propylpyrimidine], the melting point is 203 °C (dec.).
The same measure, in the same setting: the figure for `CN1CCCN(c2nccc(-c3ccoc3)n2)CC1` (as salt: hydrobromid) [Compound 42, 4-(3-Furyl)-2-(4-methylhomopiperazin-1-yl)pyrimidine] is 176 to 177 °C; for `c1cc(-c2ccoc2)nc(N2CC[N+]3(CCOCC3)CC2)n1` (as salt: iodide) [Compound 47, 4-[4-(3-Furyl)pyrimidin-2-yl]piperazine-1-spiro-1-morpholinium iodide] it is > 200 °C (dec.).
For the compound `c1ccc(CN2CCN(c3nccc(-c4ccoc4)n3)CC2)cc1` (as salt: hydrobromid) [Compound 5, 2-(4-Benzylpiperazin-1-yl)-4-(3-furyl)pyrimidine], the melting point was greater than 280 °C.
Still for that read-out and setting: with `CCCCCCc1cc(-c2coc(C)c2)nc(N2CCN(C)CC2)n1` (as salt: hydrobromid) [Compound 25, 4-n-Hexyl-6-(5-methyl-3-furyl)-2-(4-methylpiperazin-1-yl)pyrimidine] the figure was 242 °C (dec.); with `CCCN1CCN(c2nccc(-c3ccoc3)n2)CC1` (as salt: hydrobromid) [Compound 4, 4-(3-Furyl)-2-(4-propylpiperazin-1-yl)pyrimidine], 274 to 277 °C; with `Cc1occc1-c1ccnc(N2CCN(C)CC2)n1` (as salt: hydrobromid) [Compound 23, 4-(2-Methyl-3-furyl)-2-(4-methylpiperazin-1-yl)pyrimidine], 263 to 265 °C.
Same read-out and setting: the figure for `Cc1cc(-c2cccs2)cc(N2CCN(C)CC2)n1` (as salt: hydrobromid) [Compound 56, 2-Methyl-6-(4-methylpiperazin-1-yl)-4-(2-thienyl)pyridine] is 132 to 134 °C.
As usually defined, the Ki is a measure of affinity in units of concentration, obtained from inhibition or displacement. For `c1cc(-c2ccoc2)nc(N2CCOCC2)n1` [Compound 44], the melting point was 58 to 59 °C. In addition, on human 5-HT7b receptors, the “Ki ± S.D. 5-HT7 binding affinity” value was “no affinity” and the Ki was greater than 10000 nM.
Compound `c1cc(-c2ccoc2)nc(N2CCCCC2)n1` (as salt: hydrobromid) [Compound 43, 4-(3-Furyl)-2-(piperidin-1-yl)pyrimidine] had a melting point of 190 to 191 °C.
With `CCc1cc(-c2ccoc2)nc(N2CCN(C)CC2)n1` (as salt: hydrobromid) [Compound 12, 4-Ethyl-6-(3-furyl)-2-(4-methylpiperazin-1-yl)pyrimidine], the melting point lay within 287 to 288 °C.
For `CN1CCN(c2nccc(-c3cc4ccccc4s3)n2)CC1` (as salt: hydrobromid) [Compound 37, 4-(Benzothiophen-2-yl)-2-(4-methylpiperazin-1-yl)pyrimidine], the melting point lay within 299 to 300 °C.
In general, Kb refers to the affinity of an antagonist, worked out from how it opposes an agonist. Take `CCCCc1cc(-c2ccoc2)nc(N2CCN(C)CC2)n1` [Compound 13, 4-(n-Butyl)-6-(3-furyl)-2-(4-methylpiperazin-1-yl)pyrimidine]: on 5-HT7R, the Kb worked out at 60 nM. For the same compound, the “effect on 5-CT-induced cAMP accumulation” value on 5-HT7R is given as “dose-dependently decrease”. Moreover, the “fold more active than 12 at D2 receptors” value at dopaminergic D2 (13 versus 12) is recorded as 13 fold. The Ki at dopaminergic D2 was 37 ± 4 nM; on 5-HT2A it was 12 nM and 10 nM; at 5-HT6 it was 12 ± 2 nM; at human 5-HT7b receptors, 1.6 ± 0.2 nM; at 5-HT1A, 637 ± 53 nM. Besides, at 5-HT6 (13 versus 12), the “fold more active than 12 at 5-HT6” value was 10 fold.
Turning to `CCc1cc(-c2ccoc2)nc(N2CCN(C)CC2)n1` [Compound 12, 4-Ethyl-6-(3-furyl)-2-(4-methylpiperazin-1-yl)pyrimidine], the Kb on 5-HT7R was 12 nM. The “effect on 5-CT-induced cAMP accumulation” value at 5-HT7R is reported as “dose-dependently decrease”. Moreover, the Ki on dopaminergic D2 was 466 ± 39 nM; on 5-HT2A, 10 nM and 12 nM; at 5-HT6, 121 ± 14 nM; at human 5-HT7b receptors, 7.1 ± 1.4 nM; on 5-HT1A, 1500 ± 164 nM.
`CCCc1cnc(N2CCN(C)CC2)nc1-c1ccoc1` (as salt: hydrobromid) [Compound 21, 4-(3-Furyl)-2-(4-methylpiperazino)-5-propylpyrimidine]: the melting point was in the range of 206 to 208 °C.
Consider `CN1CCN(c2nccc(-c3cc4ccccc4o3)n2)CC1` (as salt: hydrobromid) [Compound 36, 4-(Benzofuran-2-yl)-2-(4-methylpiperazin-1-yl)pyrimidine], for which the melting point is greater than 300 °C.
On the same count and under the same terms, with `Cc1cc(-c2ccnc(N3CCN(C)CC3)n2)co1` (as salt: hydrobromid) [Compound 24, 4-(5-Methyl-3-furyl)-2-(4-methylpiperazin-1-yl)pyrimidine] the figure was 275 °C (dec.).

The record behind these values is paper PMC6272903, “Synthesis and Structure-Activity Relationship Analysis of 5-HT7 Receptor Antagonists: Piperazin-1-yl Substituted Unfused Heterobiaryls” (Molecules, 2016).
